Activity calls are given as the source filed them. No cut-off for these calls is given here.
Columns and labels:
[1] = Drug concentration in ICR mouse kidney at 1 mg/kg,iv administration measured after 0.5 hrs by LC-MS/MS analysis; format: ADME, organism-based; conditions: in vivo
[2] = Drug concentration in ICR mouse lung at 1 mg/kg,iv administration measured after 0.083 hrs by LC-MS/MS analysis; format: ADME, organism-based; conditions: in vivo
N2a [3] = assay: Cytoprotective activity against oxygen-glucose deprivation/reoxygenation induced cell injury in mouse N2a cells assessed as increase in cell viability at 1 uM incubated for 2 hrs under hypoxia condition and measured after 24 hrs; format: functional, cell-based; conditions: time 26.0 hrs
[4] = Drug concentration in ICR mouse liver at 1 mg/kg,iv administration measured after 0.25 hrs by LC-MS/MS analysis; format: ADME, organism-based; conditions: in vivo
[5] = Tmax in ICR mouse at 1 mg/kg,iv administration measured upto 24 hrs by LC-MS/MS analysis; format: ADME, organism-based; conditions: in vivo
HT-1080 [6] = assay: Anti-ferroptotic activity against Erastin-induced ferroptosis in human HT-1080 cells assessed as inhibition of lipid ROS production at 10 uM incubated for 24 hrs by C11-BODIPY 581/591 based flow cytometry relative to control; format: functional; conditions: HT-1080, 24 h, values are per cent of control
Mus musculus [7] = assay: Neuroprotective activity against transient middle cerebral artery occlusion induced ischemia stroke female SPF C57 mouse model assessed as upregulation of GPX expression at 5 mg/kg,iv measured after 24 hrs by Western blotting analysis; format: functional, organism-based
[8] = Drug concentration in ICR mouse lung at 1 mg/kg,iv administration measured after 0.25 hrs by LC-MS/MS analysis; format: ADME, organism-based; conditions: in vivo
[9] = Drug concentration in ICR mouse kidney at 1 mg/kg,iv administration measured after 0.25 hrs by LC-MS/MS analysis; format: ADME, organism-based; conditions: in vivo
[10] = Cytotoxicity against human H6C7 cells incubated for 2 hrs by CCK-8 assay; format: toxicity, cell-based; conditions: h6c7, 2 h
[11] = Drug concentration in ICR mouse kidney at 1 mg/kg,iv administration measured after 1 hrs by LC-MS/MS analysis; format: ADME, organism-based; conditions: in vivo
HEK293 = assay: Cytotoxicity against human HEK293 cells incubated for 2 hrs by CCK-8 assay; format: toxicity, cell-based; conditions: hek293, 2 h
[12] = Drug concentration in ICR mouse brain at 1 mg/kg,iv administration measured after 0.25 hrs by LC-MS/MS analysis; format: ADME, organism-based; conditions: in vivo
HT-1080 [13] = assay: Anti-ferroptotic activity against Erastin-induced ferroptosis in human HT-1080 cells assessed as inhibition of lipid ROS production at 0.5 uM incubated for 24 hrs by C11-BODIPY 581/591 based flow cytometry relative to control; format: functional
[14] = Cmax in ICR mouse at 1 mg/kg,iv administration measured upto 24 hrs by LC-MS/MS analysis; format: ADME, organism-based; conditions: in vivo
[15] = AUC (0 to t) in ICR mouse at 1 mg/kg,iv administration measured upto 24 hrs by LC-MS/MS analysis; format: ADME, organism-based; conditions: in vivo
Mus musculus [16] = assay: Neuroprotective activity against transient middle cerebral artery occlusion induced ischemia stroke female SPF C57 mouse model assessed as upregulation of SLC7A11 expression at 5 mg/kg,iv measured after 24 hrs by Western blotting analysis; format: functional, organism-based
[17] = Drug concentration in ICR mouse lung at 1 mg/kg,iv administration measured after 0.5 hrs by LC-MS/MS analysis; format: ADME, organism-based; conditions: in vivo
[18] = Drug concentration in ICR mouse liver at 1 mg/kg,iv administration measured after 0.5 hrs by LC-MS/MS analysis; format: ADME, organism-based; conditions: in vivo
Mus musculus [19] = assay: Neuroprotective activity against transient middle cerebral artery occlusion induced ischemia stroke female SPF C57 mouse model assessed as reduction in cerebral infarct volume at 5 mg/kg,iv measured after 24 hrs by TTC staining based analysis relative to control; format: functional; design: scale not given: the % may be the effect or the level left
[20] = Antioxidant activity assessed as DPPH radical scavenging activity at 0.4 uM incubated for 30 mins by Beckman Coulter analysis relative to control; format: functional
[21] = Half life in ICR mouse at 1 mg/kg,iv administration measured upto 24 hrs by LC-MS/MS analysis; format: ADME, organism-based; conditions: in vivo
[22] = Drug concentration in ICR mouse brain at 1 mg/kg,iv administration measured after 0.5 hrs by LC-MS/MS analysis; format: ADME, organism-based; conditions: in vivo
Mus musculus [23] = assay: Neuroprotective activity against transient middle cerebral artery occlusion induced ischemia stroke female SPF C57 mouse model assessed as reduction in neurological deficit score at 5 mg/kg,iv measured after 24 hrs; format: functional
N2a [24] = assay: Cytoprotective activity against oxygen-glucose deprivation/reoxygenation induced cell injury in mouse N2a cells assessed as upregulation of SLC7A11 expression at 1 uM incubated for 2 hrs under hypoxia condition and measured after 24 hrs by Western blotting analysis; format: functional, cell-based; conditions: time 26.0 hrs
[25] = Drug concentration in ICR mouse kidney at 1 mg/kg,iv administration measured after 0.083 hrs by LC-MS/MS analysis; format: ADME, organism-based; conditions: in vivo
HT-1080 [26] = assay: Anti-ferroptotic activity against Erastin-induced human HT-1080 cells assessed as inhibition of ferroptosis incubated for 72 hrs by CCK-8 assay; format: functional, cell-based; conditions: Homo sapiens, HT-1080, 72 h; read-out: IC50
[27] = Drug concentration in ICR mouse liver at 1 mg/kg,iv administration measured after 1 hrs by LC-MS/MS analysis; format: ADME, organism-based; conditions: in vivo
[28] = Apparent permeability of compound at 10 uM incubated for 16 hrs by PAMPA based LC-MS/MS analysis; format: ADME
[29] = Drug concentration in ICR mouse liver at 1 mg/kg,iv administration measured after 0.083 hrs by LC-MS/MS analysis; format: ADME, organism-based; conditions: in vivo
N2a [30] = assay: Cytoprotective activity against oxygen-glucose deprivation/reoxygenation induced cell injury in mouse N2a cells assessed as upregulation of GPX4 expression at 1 uM incubated for 2 hrs under hypoxia condition and measured after 24 hrs by Western blotting analysis; format: functional, cell-based; conditions: time 26.0 hrs
[31] = AUC (0 to infinity) in ICR mouse at 1 mg/kg,iv administration measured upto 24 hrs by LC-MS/MS analysis; format: ADME, organism-based; conditions: in vivo
[32] = Drug concentration in ICR mouse brain at 1 mg/kg,iv administration measured after 0.083 hrs by LC-MS/MS analysis; format: ADME, organism-based; conditions: in vivo
Mus musculus [33] = assay: Neuroprotective activity against transient middle cerebral artery occlusion induced ischemia stroke female SPF C57 mouse model assessed as reduction in cerebral edema at 5 mg/kg,iv measured after 24 hrs; format: functional, organism-based
[34] = Cytotoxicity against human L02 cells incubated for 2 hrs by CCK-8 assay; format: toxicity, cell-based
HT-1080 [35] = assay: Anti-ferroptotic activity against Erastin-induced human HT-1080 cells assessed as inhibition of ferroptosis incubated for 24 hrs by Alamar blue dye based assay; format: functional, cell-based; conditions: HT-1080, 24 h
HT-1080 [36] = assay: Anti-ferroptotic activity against Erastin-induced ferroptosis in human HT-1080 cells assessed as inhibition of lipid peroxidation production at 10 uM incubated for 24 hrs by C11-BODIPY 581/591 based flow cytometry relative to control; format: functional; conditions: HT-1080, 24 h, values are per cent of control

With Cn1nnc(-c2ccc(N)c(NC3CCCCC3)c2)n1 the Ct [1] was 0.12 mg/kg, the Ct [2] was 0.37 mg/kg and the Activity (N2a [3]) was “Active”. The Ct [4] was 0.24 mg/kg, the Tmax [5] was 4.8 min and the response, % of control at 10 µM (HT-1080 [6]) was 0.57%. The Activity (Mus musculus [7]) was “Active”, the Ct [8] was 0.19 mg/kg and the Ct [9] was 0.38 mg/kg. For the same compound, the Activity [10] was “Toxic”, the Ct [11] was 0.03 mg/kg and the Activity (HEK293) was “Toxic”. It also gave a Ct [12] of 0.04 mg/kg, an inhibition at 0.5 µM (HT-1080 [13]) of 0.3% and a Cmax [14] of 367 ng/mL. The AUC(0-t) at 24 h [15] was 91.5 ng·h/mL, the Activity (Mus musculus [16]) was “Active” and the Ct [17] was 0.1 mg/kg. It also gave a Ct [18] of 0.09 mg/kg, an Activity (Mus musculus [19]) of 12.03% and an inhibition [20] of 41.3%. For the same compound, the half-life [21] was 6 min, the Ct [22] was 0.02 mg/kg and the Activity (Mus musculus [23]) was 2. For the same compound, the Activity (N2a [24]) was “Active”, the Ct [25] was 0.41 mg/kg and the IC50 (HT-1080 [26]) was 22 nM. The Ct [27] was 0.02 mg/kg, the Papp at 16 h, 10 µM [28] was 3.89 ×10⁻⁶ cm/s and the Ct [29] was 0.32 mg/kg. For the same compound, the Activity (N2a [30]) was “Active”, the AUC(0-inf) [31] was 95.6 ng·h/mL and the Ct [32] was 0.09 mg/kg. For the same compound, the Activity (Mus musculus [33]) was “Active”.

With N#CCn1nnc(-c2ccc(NC3CCCCC3)cc2)n1 the IC50 (HT-1080 [26]) was 8120 nM.

For CCCCCCCCNc1ccc(-c2nnn(C)n2)cc1N, the IC50 (HT-1080 [26]) was 497 nM.

With COc1ccc(Nc2ccc(-c3nnn(C)n3)cc2NC2CCCCC2)cn1 the IC50 (HT-1080 [26]) was 75 nM.

With Cn1nnc(-c2cc(N)c(NC3CCCCC3)cc2F)n1 the Activity (N2a [3]) was “Active”, the IC50 at 2 h [34] was 12300 nM and the inhibition [20] was 35.3%. The IC50 (HT-1080 [26]) was 49 nM.

For Cn1nnc(-c2ccc(NC3CCCCC3)c(NCc3ccncc3)c2)n1, the IC50 (HT-1080 [26]) was > 1000 nM.

With c1cc(-c2nn[nH]n2)ccc1NC1CCCCC1 the IC50 (HT-1080 [26]) was > 10000 nM.

Compound Cn1nnc(-c2ccc(Nc3cccnc3)c(NC3CCCCC3)c2)n1 has an IC50 (HT-1080 [26]) of 186 nM.

In the case of O=C1C[C@@H](c2ccc(O)c(O)c2)Oc2cc(O[C@@H]3O[C@H](CO)[C@@H](O)[C@H](O)[C@H]3O)cc(O)c21, the IC50 (HT-1080 [26]) is reported as 10000 nM.

For Cn1nnc(-c2c(F)cc(NC3CCCCC3)cc2F)n1, the IC50 (HT-1080 [26]) was > 1000 nM.

COc1cc(NC2CCCCC2)c(N)cc1-c1nnn(C)n1 gave an IC50 (HT-1080 [26]) of 801 nM.

For O=S1(=O)CCN(Cc2cc(NC3CCOCC3)c3[nH]c(-c4ccccc4)cc3c2)CC1, the IC50 (HT-1080 [26]) was 6000 nM.

With CCOC(=O)c1ccc(NC2CCCCC2)c(NCc2ccccc2)c1 the IC50 (HT-1080 [35]) was 6 nM.

In the case of Cn1nnc(-c2ccc(NC3CCCCC3)cn2)n1, the IC50 (HT-1080 [26]) is reported as > 1000 nM.

With Cn1nnc(-c2ccc(NC3CCCCC3)cc2N)n1 the IC50 (HT-1080 [26]) was > 1000 nM.

With CN(c1ccc(-c2nnn(C)n2)cc1)C1CCCCC1 the IC50 (HT-1080 [26]) was > 10000 nM.

Work on Cn1nnc(-c2ccc(NC3CCCCC3)cc2)n1 yielded a response, % of control at 10 µM (HT-1080 [36]) of 5.96% and an IC50 (HT-1080 [26]) of 122 nM.

In the case of CNc1ccc(-c2nnn(C)n2)cc1, the IC50 (HT-1080 [26]) is reported as 8220 nM.

With COc1cc(-c2nnn(C)n2)ccc1NC1CCCCC1 the IC50 (HT-1080 [26]) was > 1000 nM.

From ChEMBL document CHEMBL5500427, “Discovery of New Phenyltetrazolium Derivatives as Ferroptosis Inhibitors for Treating Ischemic Stroke: An Example Development from Free Radical Scavengers” (J Med Chem, 2024)
